Results: ChEMBL document CHEMBL1201862, “PubChem BioAssay data set” (2004)
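A five-concentration, 48-hour dose response in 96-well plates underlies each endpoint, interpolated linearly between surrounding concentrations. The concentration for 50% growth inhibition is given as GI50.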 Activity calls are given as the source filed them. Rule as the data show it: active = GI50 up to about 1.1 µM and inactive = higher. Non-standard residues stand in square brackets, D forms with d. Residues, ends and D or L forms follow the SMILES beside them. ξ: configuration not given here. *: point of attachment. NMeF = CN[C@@H](Cc1ccccc1)C(=O)O; NMeV = CN[C@H](C(=O)O)C(C)C; ξNMeV = CNC(C(=O)O)C(C)C; Boc = CC(C)(C)OC(=O)*; OBn = c1ccc(CO*)cc1

Tests used:
Assay in all cases: NCI anticancer screen, dose series, 48 h
SK-MEL-28 = test system: SK-MEL-28
OVCAR-3 = test system: OVCAR-3
HOP-92 = test system: HOP-92
Malme-3M = test system: Malme-3M
SN12C = test system: SN12C
A549 = test system: A549
SF-539 = test system: SF-539
OVCAR-4 = test system: OVCAR-4
SK-MEL-5 = test system: SK-MEL-5
EKVX = test system: EKVX
IGROV-1 = test system: IGROV-1
SNB-75 = test system: SNB-75
NCI-H23 = test system: NCI-H23
MOLT-4 = test system: MOLT-4
RPMI-8226 = test system: RPMI-8226
SR = test system: SR
A498 = test system: A498
M19-MEL = test system: M19-MEL

Measured: GI50

CC1OC(OCC2OC(Oc3c(-c4ccc(O)cc4)oc4cc(O)cc(O)c4c3=O)C(OC3OC(C)C(O)C(O)C3O)C(O)C2O)C(O)C(O)C1O (centres undefined)
inactive: SK-MEL-28 > 100 µM | OVCAR-3 > 100 µM | HOP-92 > 100 µM | Malme-3M > 100 µM | SN12C > 100 µM | A549 > 100 µM | SF-539 > 100 µM | OVCAR-4 > 54.8 µM | SK-MEL-5 > 100 µM | EKVX > 100 µM | IGROV-1 > 100 µM | SNB-75 > 100 µM | NCI-H23 > 100 µM | MOLT-4 > 100 µM | RPMI-8226 > 56.8 µM | SR > 100 µM | A498 > 100 µM | M19-MEL > 72.4 µM

COc1ccc(C(=O)C(C(=O)CCC(=O)Nc2cccc(C(F)(F)F)c2)c2ccccc2)cc1 (centres undefined)
inactive: SK-MEL-28 > 100 µM | OVCAR-3 80 µM | HOP-92 53.6 µM | Malme-3M > 100 µM | SN12C > 100 µM | A549 65.9 µM | SF-539 > 100 µM | OVCAR-4 37.7 µM | SK-MEL-5 33.2 µM | EKVX > 100 µM | IGROV-1 > 100 µM | SNB-75 > 100 µM | NCI-H23 44.8 µM | MOLT-4 43.1 µM | RPMI-8226 55.2 µM | SR 62.7 µM | A498 > 100 µM | M19-MEL 67.5 µM

CC(C)C(C(=O)N(C)[C@H](C(=O)N1CCC[C@H]1C(=O)N(C)[C@@H](Cc1ccccc1)C(=O)OCc1ccccc1)C(C)C)N(C)C(=O)[C@@H](NC(=O)OC(C)(C)C)C(C)C (some centres undefined) (Boc-V[ξNMeV][NMeV]P[NMeF]-OBn)
inactive: SK-MEL-28 > 31.6 µM | OVCAR-3 15.3 µM | HOP-92 10.2 µM | Malme-3M 34.8 µM | SN12C > 100 µM | A549 18.7 µM | SF-539 > 31.6 µM | OVCAR-4 > 29.5 µM | SK-MEL-5 7.14 µM | EKVX > 31.6 µM | IGROV-1 22.5 µM | SNB-75 12 µM | NCI-H23 19.5 µM | MOLT-4 5.37 µM | RPMI-8226 4.97 µM | SR 7.36 µM | A498 19.5 µM | M19-MEL 30 µM
